Experimental data from patent publication US20050009924A1 (priority 2003, published 2005).

Experiments:
[1] = test system: human hepatoma G2 cells; experiment: Cytotoxicity assay (XTT colorimetric), Hep G2; assay type: cell-based; settings: 48 h of drug exposure
[2] = test system: rat glioma C6 cells; experiment: Cytotoxicity assay (XTT colorimetric), C6 cells; assay type: cell-based; settings: 48 h of drug exposure
[3] = test system: hepatitis B virus transfected hepatoma cell lines, HepG 2.2.15 cells; experiment: Cytotoxicity assay, 2.2.15 cells; assay type: cell-based, human; settings: 48 h of drug exposure
[4] = test system: transcriptional activity of hTERT; experiment: SEAP reporter assay of hTERT expression, PhTERT-SEAP (hTERT-BJ1); assay type: cell-based, human
Description: (§1) Secreted alkaine phosphatase was used as the reporter system to monitor the transcriptional activity of hTERT. Here, about […] each were grown in 96-well plates and incubated at 37° C. for 24 h and changed with fresh media. Varying amounts of drugs were added and cells were incubated for another 24 h. Culture media were collected and heated at 65° C. for 10 min to inactivate heat-labile phosphatases. An equal amount of SEAP buffer (2 M diethanolamine, 1 mM MgCl2, and 20 mM […]) was added to the media and p-nitrophenyl phosphate was added to a final concentration of 12 mM. Absorptions at 405 nm were taken, and the rate of absorption increase is determined.
(§2) Culture media were changed every 3 days. […] The stable clones were selected using G418.

[5] = test system: transcriptional activity of hTERT; experiment: SEAP reporter assay of hTERT expression, PhTERT-SEAP (H1299); assay type: cell-based, human
Description: as §1, §2

[6] = MTT relative viability, PhTERT-SEAP (H1299) cells; settings: human
[7] = MTT relative viability, PhTERT-SEAP (hTERT-BJ1) cells; settings: human
[8] = Homo sapiens, hTERT-BJ1, read-out: Relative SEAP activity (%)
[9] = Homo sapiens, NCI-H1299, hTERT-H1299, read-out: Relative SEAP activity (%)
[10] = hTERT-BJ1 cells stably transfected with PhTERT-SEAP reporter

CC(C)CNc1cccc2c1C(=O)c1cccc(NCC(C)C)c1C2=O
IC50 ([1]; Homo sapiens, HepG2): 14.3 ± 1.54 µM | IC50 ([2]; Rattus norvegicus, C6): 12.7 ± 0.37 µM | IC50 ([3]; Homo sapiens, HepG2.2.15): > 20 µM | activity at 2.8 µM [4, 8]: 22 ± 18.3% | activity at 28 µM [4, 8]: 22 ± 21.4% | activity at 285 µM [4, 8]: 29 ± 3.9% | activity at 2.8 µM [5, 9]: 94 ± 7% | activity at 28 µM [5, 9]: 91 ± 2.5% | activity at 285 µM [5, 9]: 75 ± 4.1% | viability at 48 h, 2.8 µM [6]: 108 ± 4.8% | viability at 48 h, 28 µM [6]: 106 ± 3.7% | viability at 48 h, 285 µM [6]: 80 ± 4.8% | viability at 48 h, 285 µM [7]: 72 ± 3.3% | viability at 48 h, 2.8 µM ([7]; hTERT-BJ1 cells): 110 ± 7.6% | viability at 48 h, 28 µM ([7]; hTERT-BJ1 cells): 103 ± 3%

NCCCNc1cccc2c1C(=O)c1cccc(NCCCN)c1C2=O
IC50 ([1]; Homo sapiens, HepG2): 11.67 ± 0.09 µM | IC50 ([2]; Rattus norvegicus, C6): 12.18 ± 0.04 µM | IC50 ([3]; Homo sapiens, HepG2.2.15): 7.48 µM | activity at 2.8 µM [4, 8]: 103 ± 19.8% | activity at 28 µM [4, 8]: 47 ± 20.5% | activity at 283 µM ([4]; Homo sapiens, 283 μM, hTERT-BJ1, read-out: Relative SEAP activity (%)): 60 ± 15.1% | activity at 2.8 µM [5, 9]: 102 ± 4.9% | activity at 28 µM [5, 9]: 44 ± 7.5% | activity at 283 µM ([5]; Homo sapiens, NCI-H1299, 283 μM, hTERT-H1299, read-out: Relative SEAP activity (%)): 38 ± 6% | viability at 48 h, 2.8 µM [6]: 85 ± 11.5% | viability at 48 h, 28 µM [6]: 32 ± 9.3% | viability at 48 h, 283 µM [6]: 16 ± 2.1% | viability at 48 h, 2.8 µM ([7]; hTERT-BJ1 cells): 85 ± 6.9% | viability at 48 h, 28 µM ([7]; hTERT-BJ1 cells): 3 ± 6.9%

COc1cccc2c1C(=O)c1c(O)c3c(c(O)c1C2=O)C[C@@](O)(C(=O)CO)C[C@@H]3O[C@H]1C[C@H](N)[C@H](O)[C@H](C)O1 [Adriamycin, reference compound]
IC50 ([1]; Homo sapiens, HepG2): 0.9 ± 0.01 µM | IC50 ([2]; Rattus norvegicus, C6): 1 µM | IC50 ([3]; Homo sapiens, HepG2.2.15): 1.6 µM

N.N.[Cl][Pt][Cl] [Cisplatin, reference compound]
IC50 [1]: 1.48 ± 0.62 µM | IC50 [2]: > 1 µM | IC50 [3]: 2 ± 0.54 µM

CN(C)CCNc1cccc2c1C(=O)c1cccc(NCCN(C)C)c1C2=O [IVd, 1,5-Bis(2-dimethylaminoethylamino)anthraquinone]
IC50 ([1]; Homo sapiens, HepG2): 0.09 ± 0.01 µM | IC50 ([2]; Rattus norvegicus, C6): 0.12 µM | IC50 ([3]; Homo sapiens, HepG2.2.15): 0.13 µM | activity at 2.6 µM ([4]; Homo sapiens, 2.6 μM, hTERT-BJ1, read-out: Relative SEAP activity (%)): 11 ± 22.4% | activity at 26 µM ([4]; Homo sapiens, 26 μM, hTERT-BJ1, read-out: Relative SEAP activity (%)): -15% | activity at 262 µM ([4]; Homo sapiens, 262 μM, hTERT-BJ1, read-out: Relative SEAP activity (%)): -26% | activity at 2.6 µM ([5]; Homo sapiens, NCI-H1299, 2.6 μM, hTERT-H1299, read-out: Relative SEAP activity (%)): 103 ± 6% | activity at 26 µM ([5]; Homo sapiens, NCI-H1299, 26 μM, hTERT-H1299, read-out: Relative SEAP activity (%)): 54 ± 5.9% | activity at 262 µM ([5]; Homo sapiens, NCI-H1299, 262 μM, hTERT-H1299, read-out: Relative SEAP activity (%)): 40 ± 5.9% | viability at 48 h, 2.6 µM [6]: 107 ± 9.1% | viability at 48 h, 26 µM [6]: 81 ± 8.3% | viability at 48 h, 262 µM [6]: 29 ± 2.6% | viability at 48 h, 2.6 µM ([7]; hTERT-BJ1 cells): 92 ± 4.8% | viability at 48 h, 26 µM ([7]; hTERT-BJ1 cells): 76 ± 5.9% | viability at 48 h, 262 µM ([7]; hTERT-BJ1 cells): 7 ± 18.2%

CCCCNc1cccc2c1C(=O)c1cccc(NCCCC)c1C2=O [IVj, 1,5-Bis(butylamino)anthraquinone]
IC50 ([1]; Homo sapiens, HepG2): > 20 µM | IC50 ([2]; Rattus norvegicus, C6): > 20 µM | IC50 ([3]; Homo sapiens, HepG2.2.15): > 20 µM | activity at 2.8 µM [4, 8]: 98 ± 27.4% | activity at 28 µM [4, 8]: 103 ± 27% | activity at 285 µM [4, 8]: 123 ± 22.9% | activity at 2.8 µM [5, 9]: 106 ± 7.1% | activity at 28 µM [5, 9]: 105 ± 5.5% | activity at 285 µM [5, 9]: 98 ± 5.2% | viability at 48 h, 2.8 µM [6]: 102 ± 7% | viability at 48 h, 28 µM [6]: 104 ± 9.2% | viability at 48 h, 285 µM [6]: 81 ± 13.9% | viability at 48 h, 285 µM [7]: 75 ± 5.9% | viability at 48 h, 2.8 µM ([7]; hTERT-BJ1 cells): 109 ± 9.1% | viability at 48 h, 28 µM ([7]; hTERT-BJ1 cells): 99 ± 5.9%

O=C1c2cccc(NC3CCCC3)c2C(=O)c2cccc(NC3CCCC3)c21 [IVo, 1,5-Bis(cyclopentaneamino)-anthraquinone]
IC50 [1]: > 20 µM | IC50 [2]: > 20 µM | IC50 [3]: > 20 µM

O=C1c2cccc(Nc3ccc(O)cc3)c2C(=O)c2cccc(Nc3ccc(O)cc3)c21 [IVq, 1,5-Bis(phenolamino)-anthraquinone]
IC50 [1]: 4.2 ± 0.76 µM | IC50 [2]: 14.21 ± 0.08 µM | IC50 [3]: > 20 µM

CC(=O)Nc1ccc(NC(C)=O)c2c1C(=O)c1ccccc1C2=O [VI3, 1,4-Bisacetamido-9,10-anthracenedione]
IC50 ([1]; Homo sapiens, HepG2): > 20 µM | IC50 ([2]; Rattus norvegicus, C6): > 20 µM | IC50 ([3]; Homo sapiens, HepG2.2.15): > 20 µM | SEAP/vibility ([4]; 3.1 μM, PhTERT-SEAP (hTERT-BJ1)): 0.66 | SEAP/vibility ([4]; 31 μM, PhTERT-SEAP (hTERT-BJ1)): 0.87 | SEAP/vibility ([4]; 310 μM, PhTERT-SEAP (hTERT-BJ1)): 1.20 | activity at 3.1 µM ([4]; Homo sapiens, 3.1 μM, PhTERT-SEAP (hTERT-BJ1), read-out: Relative SEAP activity (%)): 77 ± 12.4% | activity at 31 µM ([4]; Homo sapiens, 31 μM, PhTERT-SEAP (hTERT-BJ1), read-out: Relative SEAP activity (%)): 83 ± 10% | activity at 310 µM ([4]; Homo sapiens, 310 μM, PhTERT-SEAP (hTERT-BJ1), read-out: Relative SEAP activity (%)): 59 ± 15.2% | SEAP/vibility ([5]; 3.1 μM, PhTERT-SEAP(hTERT-H1299)): 0.78 | SEAP/vibility ([5]; 31 μM, PhTERT-SEAP(hTERT-H1299)): 0.83 | SEAP/vibility ([5]; 310 μM, PhTERT-SEAP(hTERT-H1299)): 2.16 | activity at 3.1 µM ([5]; Homo sapiens, NCI-H1299, 3.1 μM, PhTERT-SEAP(hTERT-H1299), read-out: Relative SEAP activity (%)): 85 ± 2.3% | activity at 31 µM ([5]; Homo sapiens, NCI-H1299, 31 μM, PhTERT-SEAP(hTERT-H1299), read-out: Relative SEAP activity (%)): 90 ± 3.3% | activity at 310 µM ([5]; Homo sapiens, NCI-H1299, 310 μM, PhTERT-SEAP(hTERT-H1299), read-out: Relative SEAP activity (%)): 80 ± 3.1% | viability at 48 h, 3.1 µM [6]: 109 ± 3.5% | viability at 48 h, 31 µM [6]: 108 ± 3.6% | viability at 48 h, 310 µM [6]: 37 ± 1.3% | viability at 48 h, 3.1 µM [7, 10]: 117 ± 3% | viability at 48 h, 31 µM [7, 10]: 95 ± 11.9% | viability at 48 h, 310 µM [7, 10]: 49 ± 8.9%

CCNc1cccc2c1C(=O)c1c(NCC)cccc1C2=O [Va, 1,8-Bis(ethylamine)-anthraquinone]
IC50 [1]: > 20 µM | IC50 [2]: > 20 µM | IC50 [3]: > 20 µM

CCCNc1cccc2c1C(=O)c1c(NCCC)cccc1C2=O [Vb, 1,8-Bis(propylamine)-anthraquinone]
IC50 [1]: 0.19 µM | IC50 [2]: 0.61 ± 0.01 µM | IC50 [3]: 1.06 µM

CCCCNc1cccc2c1C(=O)c1c(NCCCC)cccc1C2=O [Vc]
IC50 [1]: > 20 µM | IC50 [2]: > 20 µM | IC50 [3]: > 20 µM
